Data on eleven substances can be found in patent publication US10905757B2, “Cross-reactive T cell epitopes of HIV, SIV, and FIV for vaccines in humans and cats” (priority 2012, dated 2021).

In data set [1] the test system is FIV infection of naïve cat PBMC. The experiment in a line: In vitro FIV enhancing/inhibitory (E/I) assay in PBMC from naïve SPF cats (RT titer). In kind it is cell-based. To be noted: for effect on in vitro FIV infection: PBMC from naïve cats. The protocol: FIG. 35. FIV-enhancing versus inhibitory epitopes on peptides and MAPs used in pilot MAP Study. […] Abbreviation: MAP1 plus MAP2 mix (MAP1+2).
FIG. 36A and 36B. FIV/HIV-1 enhancing versus inhibitory epitopes. […] Four epitope peptides were tested in an in vivo efficacy study with prototype vaccine prime and MAP boosts against pathogenic FIV challenge (see MAP section).
To test the possibility that Fp4-3 peptide may be enhancing FIV infection, we performed an in vitro FIV enhancing/inhibitory analysis with all MAP peptides and immunogens. […]. Since MAP2 consisted of peptides FRT3-3 and FRT3-4 with a natural overlap (FIG. 34), such overlap may have blocked the enhancing activity of peptide FRT3-3 while allowing the inhibitory activity of peptide FRT3-4. […] Moreover, none of the MAP vaccinated cats had early detection or enhancement in viral load compared to the control cats. Perhaps, the strong immunity generated by the MAP2 has blocked the enhancing activity of the MAP1 when boosted together (Group 1, Table 3). To test this possibility, in vitro study is currently undergoing to evaluate whether MAP2 can block FIV enhancing activity of MAP1. Furthermore, more cats will be vaccinated with MAP 1b and MAP2 to determine the levels of cytotoxins generated to peptides Fp14-1, FRT3-3 and FRT3-4. Since these peptides have induced CTL-associated cytotoxin expression in T cells from HIV^+ subjects (FIGS. 31A-31B; FIG. 5 in (Sanou et al. 2013)), these EC peptides may also mediate their in vivo effects by inducing anti-FIV specific CTL activity.
However, only peptide Fp4-3 correlated with the in vitro enhancement induced by MAP1. Since the in vitro E/I assay uses PBMC from naïve specific pathogen free (SPF) cats, it is unlikely that the in vitro stimulation of anti-FIV CTLs occurred in the culture and eliminated the infected cells. More likely, these enhancing or inhibitory peptides induced cytokines (enhancement: IFNγ, TNFα, GM-CSF; inhibition: IFNα, IL10), chemokines (inhibition: MIP1α, MIP1β, SDF-1, RANTES), or cellular restriction factors (inhibition: Trim5α, APOBEC3g) that either enhanced or inhibited FIV/HIV-1 infection. […] IFNγ is produced during inflammatory responses to HIV-1 infection (Ipp and Zemlin 2013). Thus, high levels of antiviral cellular immune responses are needed while minimizing both non-specific and viral-specific activation of CD4^+ T cells which can enhance viral replication (Lane 2010). Removal of the enhancing epitopes on FIV and HIV-1 immunogens will be critical to produce an effective HIV-1 vaccine. To accomplish this goal, we will design a vaccine based on antiviral epitopes directed at inducing viral-specific CD4^+ CTLs, CD8^+ CTLs and polyfunctional T cells, and identifying viral enhancing epitopes to remove from vaccine candidates.

In data set [2] the test system is CD4+ T cells from HIV+ subjects. The experiment in a line: Intracellular cytotoxin staining (ICS), CD4+ T cells from HIV+ subjects. The data set is classed as cell-based, human. Set-up: key to CD4^+ T-cell cytotoxins (4C): positive (+); negative (−) response; inhibitory (↓); not done (n). To be noted: for cytotoxin expression in CD4+ T cells (in words): ST/ART− subjects; for CD4^+ T-cell cytotoxins (4C): HIV^+ subjects compared to HIV^− control group. Here is the method:
(§1) Briefly, 1×10^6PBMCs (freshly isolated) are stimulated with 20 μg of peptides for 6 hours in a total volume of 200 μL in a 96-well plate in presence of Golgi transport inhibitor (37° C., 5% CO2). The cells are processed as previously described (Horton et al. (2007)). Cells were stained with the LIVE/DEAD® fixable yellow dye (Invitrogen, Eugene, Oreg.). The monoclonal antibodies fluorochome-conjugated to human cytokines used are: APC-H7 to CD3 (clone SK7); BD Horizon V450 to CD4 (clone RPA-T4); Qdot to CD8 (clone 3B5); PE-cy7 to IFN-γ (clone 4S.B3); APC to IL-2 (clone MQ1-17H12) PerCP to perforin (clone B-D48); Alexa F1.700 to granzyme-B (clone GB11) and PE to granzyme-A (clone CB9). The flow cytometry data is collected using BD LSRII and analyzed with the FACS DIVA software.
(§2) The ICS analysis (Horton et al. (2007)) involved stimulating 0.5-1.0×10^6 freshly isolated PBMC for 6 h with the same peptide stimulant and culture conditions as the proliferation analysis in the presence of 1 μg/mL of Golgi transport inhibitor and monensin followed by labeling with LIVE/DEAD fixable yellow dye and then treatment with anti-CD16/CD32 antibody and T-cell phenotypic antibodies. The cells were subsequently fixed and permeabilized with Cytofix/Cytoperm solution (BD Biosciences) before reaction with anti-cytotoxin antibodies. The antibodies consisted of anti-CD3 APC-H7, anti-CD4 BD Horizon V450, and anti-CD8 FITC followed by anti-GrzB Alexa 700 and anti-GrzA PE (all from BD Biosciences), and anti-perforin PerCP (Abcam, Boston, Mass.).
(§3) In both analyses, 1.0-2.0×10^4 cells were fixed in phosphate-buffered saline (PBS) containing 2% paraformaldehyde and analyzed on BD LSRII using […] Software (BD Biosciences), with a positive threshold of 3% CFSE^low for CFSE-proliferation and 1% T cells expressing cytotoxin for ICS. The final value for each subject was derived after subtraction of the subject's medium control and the average value of peptide-stimulated cells from uninfected control subjects.
(§4) Flow cytometry (FACS) for measuring CFSE-proliferation and intracellular cytokine staining (ICS). Carboxyfluorescein diacetate succinimide ester (CFSE)-proliferation analysis was performed according to the manufacturer's protocol (Invitrogen) and processed as previously described (Lichterfeld et al. 2004) using the following modification: 2.5-5.0×10^5 CFSE-labeled PBMC stimulated for 4-5 days (37° C., 5% CO2) with 15-30 μg of peptides in culture media (AIM V medium, 25 μg/mL gentamycin, and 10% heat-inactivated fetal bovine serum). The ICS analysis was performed as previously described (Horton et al. 2007; Pattacini et al. 2012).
(§5) The antibodies used for the proliferation analysis consisted of anti-CD4 allophycocyanin (APC) anti-CD3 APC-H7, and anti-CD8 Pacific Blue, and those for ICS were anti-CD3 APC-H7, anti-CD4 BD Horizon V450, anti-CD8 FITC, anti-granzyme B (GrzB) Alexa 700, anti-granzyme A (GrzA) PE (BD Biosciences, Cat #555349, 560176, 558207, 560345, 555366, 560213, 558904), and anti-perforin PerCP (Abcam, Cat #ab86319). Both analyses were performed with BD LSRII and […]™ Software (BD Biosciences), using a positive threshold of >1% CFSE^low for CFSE-proliferation except for ICS studies with threshold of >0.1% T cells expressing cytotoxin. The final value for each subject was derived after subtracting the result of each HIV^+ subject with the media control followed by subtraction with the average response of the media-control subtracted HIV^− subjects.

The subject of data set [3] is CD4+ or CD8+ T cells from HIV+ subjects. The experiment in a line: Intracellular cytotoxin staining (ICS), CD4+ or CD8+ T cells from HIV+ responders. To be noted: for Cytotoxins: responders to Fp9 or Fp14 peptide pools; for cytotoxin and CD107a expression in CD4+ and CD8+ T cells (in words): p24 peptides. The data set is classed as cell-based, human. Here is the method:
Briefly, 1×10^6PBMCs (freshly isolated) are stimulated with 20 μg of peptides for 6 hours in a total volume of 200 μL in a 96-well plate in presence of Golgi transport inhibitor (37° C., 5% CO2). […] Cells were stained with the LIVE/DEAD® fixable yellow dye (Invitrogen, Eugene, Oreg.). […] The flow cytometry data is collected using BD LSRII and analyzed with the FACS DIVA software.
The cells were subsequently fixed and permeabilized with Cytofix/Cytoperm solution (BD Biosciences) before reaction with anti-cytotoxin antibodies. The antibodies consisted of anti-CD3 APC-H7, anti-CD4 BD Horizon V450, and anti-CD8 FITC followed by anti-GrzB Alexa 700 and anti-GrzA PE (all from BD Biosciences), and anti-perforin PerCP (Abcam, Boston, Mass.).
as §3
Flow cytometry (FACS) for measuring CFSE-proliferation and intracellular cytokine staining (ICS).
Both analyses were performed with BD LSRII and […]™ Software (BD Biosciences), using a positive threshold of >1% CFSE^low for CFSE-proliferation except for ICS studies with threshold of >0.1% T cells expressing cytotoxin.

Data set [4] relates to CD8+ T cells from HIV+ subjects. The experiment in a line: Intracellular cytotoxin staining (ICS: perforin, GrzA, GrzB, CD107a), CD8+ T cells from HIV+ subjects. The data set is classed as cell-based, human. On the set-up: key to CD8^+ T-cell cytotoxins (8C): positive (+); negative (−) response; inhibitory (↓); not done (n). To be noted: for HIV+ subjects whose CD8+ T cells responded with one or more cytotoxins: five HIV+ subjects, individual 13-15mer peptides; for CD8^+ T-cell cytotoxins (8C): HIV^+ subjects compared to HIV^− control group. Here is the method: as §1, §2, §3, §4, §5

For data set [5], the system named is T cells from HIV− subjects. The experiment in a line: CFSE-proliferation, CD8+ / CD4+ T cells from HIV− control subjects. The data set is classed as cell-based, human. Here is the method: Flow cytometry (FACS) for carboxyfluoresein diacetate succinimide ester (CFSE)-proliferation and intracellular cytotoxin staining (ICS). The CFSE-proliferation analysis was performed on PBMC according to the manufacturer's protocol (Invitrogen, Carlsbad, Calif.) and processed as previously described (Lichterfeld et al. (2004)). Modifications consisted of using 2.0-5.0×10^5 CFSE-labeled cells stimulated for 5 days (37° C., 5% CO^2) with 30 μg/well of total peptides in a pool (15 μg/well for individual peptide, Table 10) or 5 μg/mL PHA in AIM V medium containing 25 μg/mL of gentamycin and 10% heat-inactivated human serum. Subsequently these cells were harvested and labeled with the LIVE/DEAD fixable yellow dye (Invitrogen) and then treated 5 min with anti-CD16/CD32 antibody (Biolegend, San Diego, Calif.) for blocking non-specific binding before phenotype-specific antibodies. The following antibodies were used for the CFSE-proliferation analysis: anti-CD4 APC, anti-CD3 APC-H7, and anti-CD8 Pacific Blue (BD Biosciences, San Jose, Calif.).
as §3, §4, §5

Entries after “also recorded” stand apart in the source; their conditions may differ. Ends that are not written are not given here.

On to “concanavalin A [ConA, reference compound]”, for which the “average RT titer” value in data set [1] (FIV-enhancing mitogen control, 1:10000 dilution) is 54,634 cpm/mL.

With ARMQCRAWY [Fp9-3d], the “cytotoxin expression in CD4+ T cells (in words)” value in data set [2] is “very little cytotoxin expression”. Also, the Cytotoxins result in data set [3] was “Moderate Cytotoxins (only CD8)”. The “cytotoxin expression / CTL-associated activity in CD8+ T cells (in words)” value in data set [4] was “more cytotoxins”. Also, the “T-cell proliferation in HIV− subjects (in words)” value (shortened to “T-cell proliferation”) in data set [5] is on record as “not”.

Turning to FAPARMQCRAWYLEA [Fp9-3], the “cytotoxin expression in CD4+ T cells (in words)” value in data set [2] is recorded as “very little cytotoxin expression”. For the same substance, the Cytotoxins entry in data set [3] is “High Cytotoxins (The cytotoxin result is considered high when four or five subjects express one or more cytotoxins in the CD8^+ T cells)”. Besides, in data set [4], the “cytotoxin expression / CTL-associated activity in CD8+ T cells (in words)” value was “more cytotoxins; also recorded: highest frequency of responders” and the “HIV+ subjects whose CD8+ T cells responded with one or more cytotoxins” value is recorded as “up to four”. Moreover, the “T-cell proliferation” value in data set [5] is given as “proliferated”.

In the case of KKKSGKWRLLIDFRVLNKL [MAP2], the “effect on in vitro FIV infection” value in data set [1] is recorded as “significantly inhibited; also recorded: inhibition”.

Take RAEQASQEVKNWMTE [Hp15-1]: in data set [2], the “CD4^+ T-cell cytotoxins (4C)” value is reported as “+”. Moreover, the Cytotoxins result in data set [3] is reported as “High Cytotoxins (The cytotoxin result is considered high when four or five subjects express one or more cytotoxins in the CD8^+ T cells)”. Also, in data set [4], the “cytotoxin expression / CTL-associated activity in CD8+ T cells (in words)” value is “robust cytotoxin levels and responder frequencies”; the “CD8^+ T-cell cytotoxins (8C)” value was “+”; the “HIV+ subjects whose CD8+ T cells responded with one or more cytotoxins” value is reported as “five”. In data set [5], the “T-cell proliferation” value is reported as “not”.

With KLYLKQSLSIANA [Fp14-4], the “CD4^+ T-cell cytotoxins (4C)” value in data set [2] is reported as “+”. Further, the “cytotoxin and CD107a expression in CD4+ and CD8+ T cells (in words)” value (shortened to “cytotoxin and CD107a expression”) in data set [3] is “high frequency of cytotoxin expression”. Also, in data set [4], the “cytotoxin expression / CTL-associated activity in CD8+ T cells (in words)” value is “highest frequency and levels”; the “CD8^+ T-cell cytotoxins (8C)” value is on record as “+”; the “HIV+ subjects whose CD8+ T cells responded with one or more cytotoxins” value is “five”.

“DQEQNTAEVKLYLK [MAP1b, palmitated multiple antigenic peptide with FIV p24-peptide Fp14-1 alone]”: in data set [1], the “effect on in vitro FIV infection” value was “no significant in vitro effect”.

As to VKNWMTETLLVQNAN [Hp15-3], in data set [2], the “CD4^+ T-cell cytotoxins (4C)” value was “+”. In addition, the “cytotoxin and CD107a expression” value in data set [3] is “high levels and frequency of cytotoxin responses”. In data set [4], the “CD8^+ T-cell cytotoxins (8C)” value is “+”. Also, the “T-cell proliferation” value in data set [5] is “inducers”.

Regarding RMQCRAWYL [Fp9-3c], in data set [2], the “cytotoxin expression in CD4+ T cells (in words)” value is on record as “very little cytotoxin expression”. The Cytotoxins result in data set [3] was “Extremely Low Cytotoxins”. The “T-cell proliferation” value in data set [5] is “not”.

In the case of DQEQNTAEVKLYLK [Fp14-1], the “CD4^+ T-cell cytotoxins (4C)” value in data set [2] was “+”. Besides, in data set [3], the Cytotoxins entry is on record as “High Cytototoxins (The cytotoxin result is considered high when four or five subjects express one or more cytotoxins in the CD8^+ T cells)”. For the same substance, the “CD8^+ T-cell cytotoxins (8C)” value in data set [4] is recorded as “+”.

As to VKNWMTETL [Hp15-2/3a], the “cytotoxin and CD107a expression” value in data set [3] is “high cytotoxin and CD107a expression; also recorded: induced expression in both”. Moreover, the “T-cell proliferation” value in data set [5] was “did not stimulate”.
